The values below come from US5597829A, “Lactone stable formulation of camptothecin and methods for uses thereof” (priority 1994, dated 1997).

Entries after “also recorded” stand apart in the source; their conditions may differ. Like-named read-outs stand apart in the source and are kept apart here. Bounds are passed on as bounds.

For data set [1] the following is noted: cited from earlier work.
Another data set concerns L1210 cells. As to conditions: cited from earlier work.
Data set [2] in a line: Oral absorption / bioavailability. In kind it is in vivo. As to conditions: with taurocholic acid or salt in solution dosage composition. From the text: Taurocholic acid, a bile acid, may enhance in the intestinal absorption of the drug in certain patients. […] It is believed that this is due to the formation of a micellar solution of CPT on dilution thereof with the gastric contents.
Analogous to that of etoposide, it is believed that ingestion of the present dosage form of CPT and resulting dilution thereof by the stomach contents, results in the formation of a micellar solution of CPT in the stomach which is readily absorbed by the gastrointestinal tract.

The subject of data set [3] is topoisomerase I-cleaved DNA complex. To be noted: cited from earlier work.
For data set [4] the following is noted: cited from earlier work. This is another data set of the same source.
Data set [5] concerns Topoisomerase I purified from human colon carcinoma cells or calf thymus. As to conditions: cited from earlier work.
The conditions of data set [6]: cited from earlier work. The source holds these as a separate data set.
A further data set deals with DNA. As to conditions: in vitro cells; cited from earlier work.
Data set [7] is described as follows: Predicted outcome of administering lactone stable CPT to patients. In kind it is in vivo, human. From the text: The novel features of the present invention include the following: (1) pharmaceutically acceptable formulations which allow the direct parenteral administration of lactone stable CPT to human subjects with cancer, (2) pharmaceutically acceptable formulations which allow the direct oral administration of lactone stable CPT to human subjects with cancer, and (3) dosages and schedules for the administration of lactone stable CPT to patients with cancer by parenteral and oral routes of administration. […] The inventors predict that by administering the carboxylate species of CPT a higher incidence of renal toxicity is observed than would be observed if the lactone species of CPT were administered.
Inventors claim that reason previous use of sodium CPT caused hemorrhagic cystitis relates to the enhanced renal excretion of the carboxylate form of CPT which when exposed to the lower pH (~pH 5) of the distal convoluted tubule in the kidney, the carboxylate form of CPT is converted to the lactone form of CPT. […] Elimination of CPT by the renal route is enhanced by administration of the carboxylate form and is reduced by administration of the lactone form.

The conditions of data set [8]: human, in vivo; cited from earlier work.
For data set [9] the following is noted: pH below 7.0; cited from earlier work.
Another data set concerns LD1210 leukemia. To be noted: 10-100 mg/kg intraperitoneally; cited from earlier work.
For data set [10] the following is noted: carboxylate form; cited from earlier work.
The conditions of data set [11]: 24 hours after, once daily ×5, 6.5-20 mg/m^2 /day; cited from earlier work.
The conditions of data set [12]: cited from earlier work. The source holds these as a separate data set.
Another data set concerns malignant melanoma. As to conditions: cited from earlier work.
Where [13] appears, read: 5-day course (27 patients), 4 wks.
The mark [14] stands for this setting: 5-day course (27 patients), 8 wks.
[15] abbreviates: 5-day course (27 patients), 12 wks.
[16] abbreviates: 5-day course, 15 mg/m^2 × 5, 9 treated.
Where [17] appears, read: 5-day course, 17 mg/m^2 × 5, 5 treated.
[18] abbreviates: 5-day course, 20 mg/m^2 × 5, 10 treated.
[19] abbreviates: single-dose (34 patients), 3 wks.
[20] abbreviates: single-dose (34 patients), 6 wks.
[21] abbreviates: single-dose (34 patients), 9 wks.
Setting [22] is: single-dose (34 patients), 12 wks.
Where [23] appears, read: single-dose, 110 mg/m^2, 2 treated.
[24] abbreviates: single-dose, 120 mg/m^2, 7 treated.
Where [25] appears, read: single-dose, 180 mg/m^2, 9 treated.

In the case of `CC[C@@]1(O)C(=O)OCc2c1cc1n(c2=O)Cc2cc3cc4c(cc3nc2-1)OCO4` [10,11 methylene dioxycamptothecin], in [1], the solubility in water entry is “relatively insoluble in water”.

Regarding `CC[C@@]1(O)C(=O)OCc2c1cc1n(c2=O)Cc2cc3ccccc3nc2-1` [CPT, camptothecin], in the data set on L1210 cells, the unexplained protein-free breaks result is listed as “an increase in unexplained protein-free breaks can be detected”. The absorption following ingestion result in data set [2] was “improved absorption of the drug following ingestion”. The “stabilization of the cleavable complex” value in data set [3] was “only the closed lactone form of the drug helps stabilize the cleavable complex”. The “investigators' conclusion on toxicity and clinical value” in data set [4] (gastrointestinal cancer) was “a drug of protean and unpredictable toxicity that has no clinical value”. Moreover, the “inhibition of topoisomerase I” value in data set [5] is given as “inhibited”. Also, in data set [6] (human, in vivo), the “cystitis as nonhematologic toxic effect” value is “Cystitis was another toxic effect occurring frequently” and the excretion entry is given as “excreted unchanged by the kidneys”. The “nature of DNA strand breaks” value with DNA is “Virtually all of the DNA strand breaks observed in vitro cells treated with CPT are protein linked”. Moreover, the “renal elimination of CPT” value in data set [7] (oral or parenteral, lactone form, expected) is reported as “minimal”. The “frequency of hemorrhagic cystitis relative to sodium CPT” value in data set [7] (predicted) is listed as “significantly reduced”. Further, the “toxicity in clinical trials” value in [8] was “unpredictable myelosuppression and hemorrhagic cystitis”. For the same compound, in [9], the form predominating result is “closed form of CPT predominates”. For the same compound, in the data set on LD1210 leukemia, the “T/C (treated/control) ratios” value is “superior T/C (treated/control) ratios relative to mice treated in the same manner with 7-ethyl camptothecin (ECPT) and 10-hydroxy 7-ethyl camptothecin (HECPT); also recorded: inferior to that of CPT-11 administration under the same conditions”.

Consider `CC[C@@](O)(C(=O)O)c1cc2n(c(=O)c1CO)Cc1cc3ccccc3nc1-2` [carboxylate form of CPT], for which the “reduction of antitumor activity” value in data set [10] is reported as “at least 10 fold”.

With “sodium salt of camptothecin [CPT sodium]”, the Cystitis was 48 % of 27 Patients in data set [4] (5-Day Course, P < 0.05) and 24 % of 34 Patients in data set [4] (Single Dose). The “Objective results: Improved” value is 1 patients in data set [4] (setting [13]), 4 patients in data set [4] (setting [19]), 2 patients in data set [4] (setting [20]) and 2 patients in data set [4] (setting [21]). In addition, the “Objective results: Stable” value in [4] (setting [13]) was 12 patients; in [4] (setting [14]), 7 patients; in [4] (setting [15]), 6 patients; in data set [4] (setting [19]), 17 patients; in data set [4] (setting [20]), 11 patients; in data set [4] (setting [21]) it was 8 patients. Further, the “Objective results: Stable” value in data set [4] (setting [22]) was 6 patients. Further, the “Objective results: Worse” value was 14 patients in data set [4] (setting [13]); 20 patients in data set [4] (setting [14]); 21 patients in data set [4] (setting [15]); 13 patients in data set [4] (setting [19]); 21 patients in [4] (setting [20]); 24 patients in [4] (setting [21]). Also, the “Objective results: Worse” value in [4] (setting [22]) is recorded as 28 patients. Also, the “Cystitis, No. of Patients” value was 1 No. of Patients in data set [4] (5-day course, 11 mg/m^2 × 5, 2 treated); 4 No. of Patients in data set [4] (setting [16]); 2 No. of Patients in [4] (setting [17]); 6 No. of Patients in data set [4] (setting [18]); 2 No. of Patients in data set [4] (single-dose, 100 mg/m^2, 6 treated); 1 No. of Patients in data set [4] (setting [23]). Moreover, the “Cystitis, No. of Patients” value is recorded as 2 No. of Patients in data set [4] (setting [24]) and 3 No. of Patients in data set [4] (setting [25]). Further, the “Diarrhea, No. of Patients” value in data set [4] (setting [16]) was 1 No. of Patients; in data set [4] (setting [17]), 4 No. of Patients; in data set [4] (setting [18]), 4 No. of Patients; in [4] (5-day course, 22 mg/m^2 × 5, 1 treated), 1 No. of Patients; in data set [4] (setting [23]), 1 No. of Patients; in [4] (setting [24]), 4 No. of Patients. Further, the “Diarrhea, No. of Patients” value in [4] (setting [25]) is 2 No. of Patients. Moreover, the partial objective improvement result in [4] (after 2 months (8 or 9 weeks), both large bowel cancer) is listed as “two”. In addition, the improvement result in data set [4] (at 3 months, 61 patients) is on record as “none showed improvement”. In data set [4] (at 3 wks only), the 25%-50% response is reported as 3 patients. Moreover, the “persistence of severe diarrhea” value in [4] (higher doses) was at most 4 weeks. Also, the onset of cystitis in data set [4] (human, in vivo) was 7 to 10 days. The “relation of plasma CPT levels to dose” value in data set [11] is recorded as “little relation to the dose given”. The “Bladder toxicity, dose limiting” value in data set [6] (doses of 20 to 30 mg/m^2) is “three”. In addition, the “Bladder toxicity, additional patients” value in data set [6] (doses of 44 and 30 mg/m^2) is reported as “two”. Further, in [6] (eight patients with measurable disease, 5-day courses), the clinical benefit entry is “No clinical benefit was observed”. For the same compound, the “cystitis as nonhematologic toxic effect” value in data set [6] (human, in vivo) was “Cystitis was the most prominent nonhematologic toxic effect”. Moreover, the “major dose-limiting toxic effect” value in data set [6] (human, in vivo) is listed as “Reversible leukopenia”. Besides, the “prolonged leukopenia after daily treatment” value in [6] (total dose of 100 mg/m^2) is “four”. For the same compound, the clinical responses result in data set [6] (weekly courses) is “two”. Moreover, the “mean urine recovery of CPT” value in data set [12] (first 48 hours, iv) is given as 17.4%. Moreover, the “urine recovery of CPT, range” value in data set [12] (first 48 hours, iv) was 3.6-38.9%. Besides, the “mean urine recovery of CPT excluding the 5 patients with impaired excretion” value in [12] (iv, 2880 min) is 22.8%. Also, the sterile hemorrhagic cystitis in [12] (moderately dehydrated patients) was 3 patients. Further, the “toxicity in clinical trials” value in [8] was “unpredictable and severe myelosuppression, gastrointestinal toxicity, hemorrhagic cystitis, and alopecia”. For the same compound, the “50% or greater decrease in tumor diameter” value in the data set on malignant melanoma (90-360 mg/m^2 every 2 weeks, fifteen patients) was “None”. The myelosuppression with malignant melanoma (fifteen patients) is listed as 11 patients. In the data set with malignant melanoma (human, in vivo), the toxic effects entry was “nausea and vomiting, alopecia, diarrhea, and hemorrhagic cystitis”. Moreover, the “less pronounced transient tumor regression” value with malignant melanoma (no clinical benefit, fifteen patients) is “three”.
